In PubChem BioAssay (NCI):
“And” between values parts separate entries of the source, which are not always exact repeats. Equal values may be shown once.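 These data come from cells grown in 96-well plates and exposed to compound for 48 hours at five concentrations. The concentration for 50% growth inhibition is given as GI50. TGI: total growth inhibition.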

Experiments:
Assay in all cases: DTP human tumour cell line panel, 48 h
MALME-3M melanoma = tested on: MALME-3M melanoma
HS 578T breast = tested on: HS 578T breast
NCI-H23 lung = tested on: NCI-H23 lung
CAKI-1 renal = tested on: CAKI-1 renal
SK-MEL-2 melanoma = tested on: SK-MEL-2 melanoma
HL-60(TB) leukemia = tested on: HL-60(TB) leukemia
HCC-2998 colon = tested on: HCC-2998 colon
MDA-MB-231 breast = tested on: MDA-MB-231 breast
MOLT-4 leukemia = tested on: MOLT-4 leukemia
SNB-75 CNS = tested on: SNB-75 CNS

SMILES | GI50 (MALME-3M melanoma) [µM] | TGI (MALME-3M melanoma) [µM] | GI50 (HS 578T breast) [µM] | TGI (HS 578T breast) [µM] | GI50 (NCI-H23 lung) [µM] | TGI (NCI-H23 lung) [µM] | GI50 (CAKI-1 renal) [µM] | TGI (CAKI-1 renal) | GI50 (SK-MEL-2 melanoma) [µM] | TGI (SK-MEL-2 melanoma) | GI50 (HL-60(TB) leukemia) [µM] | TGI (HL-60(TB) leukemia) | GI50 (HCC-2998 colon) [µM] | TGI (HCC-2998 colon) [µM] | GI50 (MDA-MB-231 breast) [µM] | TGI (MDA-MB-231 breast) [µM] | GI50 (MOLT-4 leukemia) [µM] | GI50 (SNB-75 CNS) [µM] | TGI (SNB-75 CNS) [µM] | TGI (MOLT-4 leukemia)
N#Cc1nc(C#N)c(Sc2ccccc2)c(Sc2ccccc2)c1Sc1ccccc1 | 1.48 | 5.04 | 0.463 | > 100 | 0.36 | 2.35 | 1.22 | > 100 µM | 2.17 | > 21.6 µM | 1.88 | > 29.5 µM | 2.24 | 4.66 | 0.296 | 0.773 | 0.317 | 2.42 | > 29.3 | –
O=C1NC2(CCCCC2)C(=O)N1CCN(CCCl)CCCl | > 25 | > 194 | – | > 25 | 24.8 | – | 19.5 | 25 µM and 175 µM | 13.3 | 25 µM and > 141 µM | 11.8 | 25 µM and 183 µM | > 25 | > 250 | – | > 25 | 7.1 | > 25 | > 250 | 22.5 µM and 196 µM
CCN(CC)CCN1c2nc3ccccc3cc2Sc2cc3ccccc3nc21 | 1.57 | 3.12 | 1.73 | 4.61 | 2.51 | 10.6 | 1.8 | 6.11 µM | 1.69 | 4.4 µM | 1.99 | 4.21 µM | 1.69 | 3.72 | 1.58 | 4.03 | 2.31 | 1.32 | 6.22 | 6.6 µM
COc1ccccc1[As]=[As]c1ccccc1OC (stereo unspecified) | 0.0443 | 0.145 | 0.0378 | 0.334 | 0.0653 | 0.204 | 0.066 | 0.202 µM | 0.157 | 0.3 µM | 0.0492 | 0.262 µM | 0.0785 | 0.218 | 0.0564 | 0.182 | 0.0382 | 0.0305 | 0.13 | 0.204 µM
CC(=O)/C(Br)=C/c1ccc(Br)o1 | 6.15 | 14.3 | 2.39 | 7.22 | 12.1 | 41.7 | 6.05 | 12.4 µM | 8.59 | 23.9 µM | 2.53 | 8.58 µM | 19 | 36.7 | 14.8 | 30 | 3.03 | 10.3 | 33.3 | 15.3 µM
O=C(NCCOCCOCCOCCNC(=O)c1cc2c(o1)C(=O)c1ccccc1C2=O)NC12CC3CC(CC(C3)C1)C2 | 0.191 | 0.489 | 2.18 | 6.85 | 0.234 | 1.97 | 2.37 | 11.5 µM | 2.15 | 5.46 µM | 2.16 | 6.46 µM | 1.99 | 4.02 | 3.04 | 16.6 | 2.87 | 2.25 | 4.06 | 8.04 µM
Cc1c2ccncc2c(C)c2c1sc1ccccc12 | – | 29.1 | – | 39.5 | – | 25.2 | – | 27.9 µM | – | 50.4 µM | – | 17.3 µM | – | 25.9 | – | 44.1 | – | – | 36.5 | 7.28 µM
CNC(=O)c1c(F)cccc1Nc1nc(Nc2cc3c(cc2OC)CCN3C(=O)CN(C)C)nc2[nH]ccc12 | 1.5 | 3.13 | 17.8 | 46.8 | 13.3 | 34 | 16.1 | 45.7 µM | 4.87 | 19.8 µM | 0.364 | 18.2 µM | 4.42 | 9.2 | 1.9 | 4.15 | 3.01 | 11.7 | 24.7 | > 24.7 µM
